assay: Hydrolytic stability: time dependent degree of hydrolysis of the 19F fluorosilane to the hydroxy compound at physiological pH (7.0); format: physicochemical; conditions: ratio of hydrolytic halflife to radioactive halflife of the 18-F isotope (1.83 hours)
Method: The time dependent degree of hydrolysis of compounds of formula I in which X is a fluorine atom of isotope 19 to compounds of formula I in which X is a hydroxy group was determined at physiological pH (7.0). From the kinetics the hydrolytic halflife (t1/2) measured in hours [h] of compounds of formula I in which X is a fluorine atom of isotope 19 were calculated (Table 1, column 2).
The ratio of the hydrolytic halflifes of compounds of formula I in which X is a fluorine atom of isotope 19 and the radioactive halflife of the 18-F isotope (1.83 hours) is defined as relative stability (Table 1, column 3).
After 6 hours 90% of the 18-F isotope have been decayed.
Compounds of formula I in which X is a fluorine atom of isotope 18 are considered as useful for PET applications if the relative stability of their analogs bearing a fluorine atom of isotope 19 exceed a factor of four and if at least 50% of these compounds remain intact after 6 hours under hydrolytic conditions at pH 7.

Compound	rel. stability
CC(C)[Si](F)(c1ccc(COC2CCCCO2)cc1)C(C)C (racemic) [Compound 3a - F, (RS)-Fluoro-diisopropyl-[4-(tetrahydro-pyran-2-yloxymethyl)-phenyl]-silane]	27.0
CC(C)[Si](F)(c1cccc(CCOC2CCCCO2)c1)C(C)C (racemic) [Compound 3e - F, (RS)-Fluoro-diisopropyl-{3-[2-(tetrahydro-pyran-2-yloxy)-ethyl]-phenyl}-silane]	> 54.6
F[Si](c1ccccc1)(c1ccccc1)c1ccc(CCOC2CCCCO2)cc1 (racemic) [Compound 3f - F, (RS)-Fluoro-diphenyl-{4-[2-(tetrahydro-pyran-2-yloxy)-ethyl]-phenyl}-silane]	0.04
CC(C)C[Si](F)(CC(C)C)c1ccc(COC2CCCCO2)cc1 (racemic) [Compound 3g - F, (RS)-Fluoro-diisobutyl-[4-(tetrahydro-pyran-2-yloxymethyl)-phenyl]-silane]	4.5
CC(C)[Si](F)(c1ccc(C(=O)O)cc1)C(C)C [Compound 5a - F, 4-(Fluoro-diisopropyl-silanyl)-benzoic acid]	6.1
CC(C)C[Si](F)(CC(C)C)c1ccc(C(=O)O)cc1 [Compound 5g - F, 4-(Fluoro-diisobutyl-silanyl)-benzoic acid]	1.9
CC(C)C[Si](F)(CC(C)C)c1ccc(CC(=O)O)cc1 [Compound 5h - F, [4-(Fluoro-diisobutyl-silanyl)-phenyl]-acetic acid]	4.8
CC(C)C[Si](F)(CCCCC(=O)Nc1ccccc1)CC(C)C [Compound 30a - 1F, 5-(Fluoro-diisobutyl-silanyl)-pentanoic acid phenylamide]	7.5
